Measured values published in patent US20260070899A1, “N-(2-(4-CYANOTHIAZOLIDIN-3-YL)-2-OXOETHYL)-QUINOLINE-4-CARBOXAMIDES” (AstraZeneca AB, priority 2022, published 2026).

Tests used:
[1] = target: T1, human dipeptidylpeptidase 9 (hDPP9) (Homo sapiens, UniProt Q86TI2); assay: hDPP9 inhibition assay; format: biochemical; settings: hDPP9 0.4 nM, Ala-Pro-amino-methylcoumarin 5 μM; n = 1
T1 construct: purchased BPS Bioscience 80090
Description: (§1) Compounds were tested in a biochemical inhibition assay using human dipeptidylpeptidase 9 (hDPP9) enzyme at 0.4 nM FAC (BPS Bioscience, #80090) and the substrate Ala-Pro-amino-methylcoumarin (BPS Bioscience #80305) at 5 μM FAC. The enzymatic reactions were conducted in duplicate at rt for 30 min in 50 μL DPP assay buffer (BPS Bioscience, #80300). Compound solutions (in DMSO) at 10 CR, 3 fold dilution series were prepared in assay buffer ten-fold higher than the final concentration, and 5 μL of the dilution was added to a 50 μL reaction so that the highest compound concentration was 100 μM FAC and the concentration of DMSO was 1% in all wells. The plates were read on a Tecan Infinite M1000 microplate reader with excitation 340 nm and emission 460 nm. Data were analyzed in Graph Pad Prism. […] Raw data signals were normalized using 1% DMSO as 0% control and no enzyme as 100% inhibitor control.

[2] = target: T2, Prolyl endopeptidase, Prolyl Oligopeptidase (hPREP) (Homo sapiens, UniProt P48147); assay: biochemical
T2 sequence (P48147 1-710): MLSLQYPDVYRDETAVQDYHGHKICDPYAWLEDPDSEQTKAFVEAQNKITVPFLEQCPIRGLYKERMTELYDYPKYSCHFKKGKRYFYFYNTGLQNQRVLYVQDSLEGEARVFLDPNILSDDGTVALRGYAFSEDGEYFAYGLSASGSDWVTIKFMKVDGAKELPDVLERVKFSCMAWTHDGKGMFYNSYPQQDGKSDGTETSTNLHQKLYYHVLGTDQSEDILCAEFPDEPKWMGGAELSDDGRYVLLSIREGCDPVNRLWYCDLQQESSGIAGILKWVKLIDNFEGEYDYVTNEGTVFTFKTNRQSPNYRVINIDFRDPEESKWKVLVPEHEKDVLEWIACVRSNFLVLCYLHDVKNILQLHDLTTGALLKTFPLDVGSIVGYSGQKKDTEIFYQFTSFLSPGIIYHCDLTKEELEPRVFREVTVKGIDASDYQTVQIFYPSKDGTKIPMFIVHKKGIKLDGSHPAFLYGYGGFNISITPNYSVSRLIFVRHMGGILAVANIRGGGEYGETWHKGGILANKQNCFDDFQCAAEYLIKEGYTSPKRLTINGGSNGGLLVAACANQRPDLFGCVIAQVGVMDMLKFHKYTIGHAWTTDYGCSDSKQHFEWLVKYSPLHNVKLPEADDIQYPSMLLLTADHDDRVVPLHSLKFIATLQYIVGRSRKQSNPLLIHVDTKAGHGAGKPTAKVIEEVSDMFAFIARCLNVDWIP
Description: Compounds were tested in a biochemical inhibition assay using Prolyl endopeptidase, Prolyl Oligopeptidase (hPREP) enzyme at 0.6 nM FAC (R&D Systems, 4308-SE) and the substrate Z-Gly-Pro-amino-methylcoumarin (Bachem, I-1145) at 50 μM FAC. 384 Low volume black plates (Greiner #784076) were used. […] Plates were incubated for 15 min at rt in dark. 4 μL, 100 μM substrate solution (25 mM Tris HCl, 250 mM NaCl, 0.01% Triton X-100, 5 mM Glutathione, pH 7.5) was added to each well. Plates were centrifuged at 1000 rpm and incubated for 20 min at rt in dark. The plates were read on a PHERAstar® reader with excitation 340 nm and emission 460 nm. Data were analyzed in Genedata Screener®. IC50 values were determined by plotting % inhibition versus log compound concentration and using a one site dose response model.

[3] = target: T3, human dipeptidylpeptidase 7 (hDPP7) (Homo sapiens, UniProt Q9UHL4); assay: hDPP7 inhibition assay; format: biochemical; settings: hDPP7 15 nM, Ala-Pro-amino-methylcoumarin 5 μM; n = 1
T3 construct: purchased BPS Bioscience 80070
Description: Compounds were tested in a biochemical inhibition assay using human dipeptidylpeptidase 7 (hDPP7) enzyme at 15 nM FAC (BPS Bioscience, #80070) and the substrate Ala-Pro-amino-methylcoumarin (BPS Bioscience, #80305) at 5 μM FAC. The enzymatic reactions were conducted in duplicate at rt for 30 min in 50 μL DPP assay buffer (BPS Bioscience, #80300). Compound solutions (in DMSO) at 10 CR, 3 fold dilution series were prepared in assay buffer ten-fold higher than the final concentration, and 5 μL of the dilution was added to a 50 μL reaction so that the highest compound concentration was 100 μM FAC and the concentration of DMSO was 1% in all wells. The plates were read on a Tecan Infinite M1000 microplate reader with excitation 340 nm and emission 460 nm. Data were analyzed in Graph Pad Prism. […] Raw data signals were normalized using 1% DMSO as 0% control and no enzyme as 100% inhibitor control.

[4] = target: T4, human dipeptidylpeptidase 8 (hDPP8) (Homo sapiens, UniProt Q6V1X1); assay: hDPP8 inhibition assay; format: biochemical; settings: hDPP8 1.5 nM, Ala-Pro-amino-methylcoumarin 5 μM; n = 1
T4 construct: purchased BPS Bioscience 80080
T4 sequence (Q6V1X1 whole entry): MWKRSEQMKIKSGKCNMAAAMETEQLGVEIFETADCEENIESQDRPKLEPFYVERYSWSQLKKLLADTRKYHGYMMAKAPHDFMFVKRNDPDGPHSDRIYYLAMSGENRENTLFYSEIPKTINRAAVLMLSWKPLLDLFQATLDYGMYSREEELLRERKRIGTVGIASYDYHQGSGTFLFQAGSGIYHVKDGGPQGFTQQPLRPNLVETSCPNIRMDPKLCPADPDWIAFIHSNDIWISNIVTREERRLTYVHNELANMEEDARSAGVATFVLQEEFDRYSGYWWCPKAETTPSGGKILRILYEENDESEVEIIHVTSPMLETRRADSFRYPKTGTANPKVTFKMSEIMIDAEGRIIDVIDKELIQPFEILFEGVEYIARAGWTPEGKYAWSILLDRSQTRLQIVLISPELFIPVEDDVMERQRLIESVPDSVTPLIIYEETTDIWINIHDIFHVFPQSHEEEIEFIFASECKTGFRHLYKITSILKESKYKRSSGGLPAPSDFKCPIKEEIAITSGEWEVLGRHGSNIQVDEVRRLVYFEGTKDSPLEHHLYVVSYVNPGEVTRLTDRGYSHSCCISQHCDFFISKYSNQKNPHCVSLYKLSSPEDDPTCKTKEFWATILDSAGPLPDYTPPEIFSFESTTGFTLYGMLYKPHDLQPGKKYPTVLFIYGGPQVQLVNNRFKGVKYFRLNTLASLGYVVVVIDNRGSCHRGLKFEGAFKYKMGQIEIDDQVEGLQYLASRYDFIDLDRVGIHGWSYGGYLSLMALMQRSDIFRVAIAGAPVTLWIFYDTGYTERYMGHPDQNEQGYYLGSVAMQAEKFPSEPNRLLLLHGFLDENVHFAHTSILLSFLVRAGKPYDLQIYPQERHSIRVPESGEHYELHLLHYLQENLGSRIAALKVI
Description: as §1, with “8 (hDPP8)” for “9 (hDPP9)”, “1.5” for “0.4”, “#80080)” for “#80090)”

[5] = system: Rat Hepatocytes (rHep); assay: Metabolic stability in rat hepatocytes (rHep); format: in vitro ADME; settings: n = 1 or geometric mean (n = 2-3)
Description: Metabolic stability in rat hepatocytes was measured as described in J Comput Aided Mol Des 2015, 29, 795.

[6] = Metabolic stability in human liver microsomes (HLM); format: in vitro ADME; settings: n = 1 or average (n = 2-3)
Description: Metabolic stability in HLM was measured as described in J Comput Aided Mol Des 2015, 29, 795.

[7] = Caco-2 AB intrinsic permeability; format: in vitro ADME; settings: human, A to B intrinsic, n = 1 or average (n = 2), read-out: Caco2 AB Intrinsic Papp
Description: Caco-2 cell permeability was measured as described in Mol Pharm 2017, 14, 1601.

[8] = Kinetic solubility; format: physicochemical; settings: kinetic from dmso stock, n = 1 or average (n = 2-4)
Description: Kinetic solubility was measured as described in Comput Aided Mol Des 2015, 29, 795.

[9] = target: T5, hFAP (M39-A757) (Homo sapiens, UniProt Q12884); assay: biochemical;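 note: surface plasmon resonance direct binding to hFAP amine-coupled on a sensor chip, rising compound concentrations by single cycle kinetics, Kd from global fit of interaction models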
T5 sequence (Q12884 39-757): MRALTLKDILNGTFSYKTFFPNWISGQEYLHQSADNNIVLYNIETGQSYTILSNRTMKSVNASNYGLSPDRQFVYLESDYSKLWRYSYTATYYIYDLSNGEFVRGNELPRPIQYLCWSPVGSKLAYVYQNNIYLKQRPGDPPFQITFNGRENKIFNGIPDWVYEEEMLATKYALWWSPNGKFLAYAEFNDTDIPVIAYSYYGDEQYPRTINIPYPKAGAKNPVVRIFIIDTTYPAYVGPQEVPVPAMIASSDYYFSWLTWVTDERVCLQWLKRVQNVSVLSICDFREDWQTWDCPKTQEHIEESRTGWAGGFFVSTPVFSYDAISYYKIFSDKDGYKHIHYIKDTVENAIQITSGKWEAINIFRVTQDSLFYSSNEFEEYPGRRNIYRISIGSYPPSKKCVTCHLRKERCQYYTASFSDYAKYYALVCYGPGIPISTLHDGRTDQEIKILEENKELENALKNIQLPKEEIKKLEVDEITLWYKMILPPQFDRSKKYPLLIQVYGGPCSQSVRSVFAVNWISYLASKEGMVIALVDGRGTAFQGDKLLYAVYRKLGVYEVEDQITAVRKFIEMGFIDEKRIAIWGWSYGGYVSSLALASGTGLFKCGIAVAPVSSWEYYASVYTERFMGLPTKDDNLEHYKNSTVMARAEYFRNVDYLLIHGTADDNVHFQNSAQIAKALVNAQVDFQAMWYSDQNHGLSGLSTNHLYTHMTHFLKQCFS

T1 sequence (Q86TI2 whole entry): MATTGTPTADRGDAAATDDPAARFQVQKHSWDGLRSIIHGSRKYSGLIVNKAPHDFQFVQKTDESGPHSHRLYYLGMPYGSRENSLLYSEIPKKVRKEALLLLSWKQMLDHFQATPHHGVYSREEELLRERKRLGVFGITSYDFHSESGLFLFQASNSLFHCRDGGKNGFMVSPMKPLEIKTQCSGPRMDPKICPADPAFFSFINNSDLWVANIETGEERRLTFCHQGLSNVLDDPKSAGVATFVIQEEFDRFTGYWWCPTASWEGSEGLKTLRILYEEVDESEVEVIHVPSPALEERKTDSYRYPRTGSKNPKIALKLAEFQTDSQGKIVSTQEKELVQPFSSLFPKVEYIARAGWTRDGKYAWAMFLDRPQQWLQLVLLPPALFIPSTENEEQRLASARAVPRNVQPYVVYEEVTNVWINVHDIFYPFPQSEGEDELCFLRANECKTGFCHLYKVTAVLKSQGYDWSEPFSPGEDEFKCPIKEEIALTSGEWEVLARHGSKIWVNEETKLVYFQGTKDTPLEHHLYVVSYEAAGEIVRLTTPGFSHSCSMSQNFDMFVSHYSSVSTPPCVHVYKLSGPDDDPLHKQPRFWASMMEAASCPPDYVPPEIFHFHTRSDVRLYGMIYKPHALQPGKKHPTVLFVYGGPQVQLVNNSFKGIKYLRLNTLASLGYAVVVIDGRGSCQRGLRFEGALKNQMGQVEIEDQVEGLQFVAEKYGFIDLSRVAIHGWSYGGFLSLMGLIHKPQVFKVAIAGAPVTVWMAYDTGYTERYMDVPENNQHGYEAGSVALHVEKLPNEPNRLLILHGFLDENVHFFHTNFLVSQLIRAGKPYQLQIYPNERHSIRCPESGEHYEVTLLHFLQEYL

SMILES	IC50 [1] [nM]	IC50 [2] [nM]	IC50 [3] [nM]	IC50 [4] [nM]	rHeps CLint [5] [μL/min/1E6]	microsomal CLint [6] [µL/min/mg]	Papp A→B [7] [×10⁻⁶ cm/s]	solubility [8] [µM]	Kd [9] [nM]
N#C[C@@H]1CSCN1C(=O)CNC(=O)c1ccnc2ccc(OC3CCOCC3)cc12 [Example 6, (R)—N-(2-(4-Cyanothiazolidin-3-yl)-2-oxoethyl)-6-((tetrahydro-2H-pyran-4-yl)oxy)quinoline-4-carboxamide]	2900	1200	> 100000	6400	–	–	–	–	–
COCCOc1ccc2nccc(C(=O)NCC(=O)N3CSC[C@H]3C#N)c2c1 [Example 4, (R)—N-(2-(4-Cyanothiazolidin-3-yl)-2-oxoethyl)-6-(2-methoxyethoxy)quinoline-4-carboxamide]	–	570	–	–	<1	< 3	10	> 1000	0.057
